For assay [1], the system named is HIV. The settings on record: human, in vivo; cited from earlier work.
Assay [2] concerns fusion between HeLa-EnvJR-FL and PM1 cells. As to the method: HIV-1 envelope-mediated fusion between HeLa-EnvJR-FL and PM1 cells was detected using a Resonance Energy Transfer (RET) assay.
HIV-1 inhibition data were analyzed according to the Combination Index method of Chou and Talay. The data are modeled according to the median-effect principle, which can be written f=1/[1+(K/c)^m] (1) where f is the fraction affected/inhibited, c is concentration, K is the concentration of agent required to produce the median effect, and m is an empirical coefficient describing the shape of the dose-response curve. Equation (1) is a generalized form of the equations describing Michaelis-Menton enzyme kinetics, Langmuir adsorption isotherms, and Henderson-Hasselbalch ionization equilibria, for which m=1 in all cases. In the present case, K is equal to the IC50 value. K and m are determined by curve-fitting the dose-response curves.
After the best-fit parameters for K and m are obtained for the experimental agents and their combination, Equation (1) is rearranged to allow for calculation of c for a given f.
All concentrations are those required to achieve a given degree of inhibition. Equation (2) is used when the molecules are mutually nonexclusive, i.e., have different sites of action. Since this is the likely scenario for inhibitors of HIV-1 attachment and gp41 fusion intermediates, Equation (2) was used for all Combination Index calculations. […] CI<1 indicates synergy, CI=1 indicates purely additive effects, and CI>1 indicates antagonism. In general, CI values are most relevant at the higher levels of inhibition that are required to achieve a measurable clinical benefit.

With enfuvirtide, the “reduction of plasma HIV RNA levels” value in assay [1] was ≤ 2 logs. Besides, the “concentration of the agent contained in the combination giving 95% inhibition” value in assay [2] (25:1 CD4-IgG2:T-20 mass ratio) turned out to be 0.044 µg/mL. In addition, the “dose reduction by the combination” value in assay [2] (95% inhibition, 25:1 mass ratio) is 5 fold. Further, the “K (equal to IC50), best-fit median effect parameter” value in assay [2] (FIG. 8, combination 25:1 CD4-IgG2:T-20) was 0.017 µg/mL. The “concentration required for inhibition of viral entry by 95%” value in assay [2] (agent used alone, or total of 25:1 mass ratio combination) came to 0.21 µg/mL.

These data come from patent publication US7060273B2, “Methods for inhibiting HIV-1 infection” (priority 2001, dated 2006).
